Experimental data as given in ChEMBL document CHEMBL4138123, “Design, synthesis and biological evaluation of novel pyrazolochalcones as potential modulators of PI3K/Akt/mTOR pathway and inducers of apoptosis in breast cancer cells” (Eur J Med Chem, 2017).

Assays:
Assay type in all cases: functional
CCRF-CEM [1] = assay: Cytotoxicity against human CCRF-CEM cells assessed as growth inhibition after 48 hrs by sulforhodamine B assay
HOP-62 [2] = assay: Cytotoxicity against human HOP62 cells assessed as growth inhibition after 48 hrs by sulforhodamine B assay; settings: HOP-62, 48 h
NCI-H23 [3] = assay: Cytotoxicity against human NCI-H23 cells assessed as growth inhibition after 48 hrs by sulforhodamine B assay; settings: NCI-H23, 48 h; for CC50: read-out: LC50 (the source's name)
SF-268 = assay: Cytotoxicity against human SF268 cells assessed as growth inhibition after 48 hrs by sulforhodamine B assay; settings: SF-268, 48 h; for CC50: read-out: LC50 (the source's name)
SK-MEL-2 = assay: Cytotoxicity against human SK-MEL-2 cells assessed as growth inhibition after 48 hrs by sulforhodamine B assay; settings: SK-MEL-2, 48 h
MDA-MB-468 = assay: Cytotoxicity against human MDA-MB-468 cells assessed as growth inhibition after 48 hrs by sulforhodamine B assay; settings: MDA-MB-468, 48 h
SW-620 [4] = assay: Cytotoxicity against human SW620 cells assessed as cell growth at 0.01 uM after 48 hrs by sulforhodamine B assay relative to control; settings: SW-620, 48 h, read-out: Activity
RPMI-8226 = assay: Cytotoxicity against human RPMI8226 cells assessed as cell growth at 0.01 uM after 48 hrs by sulforhodamine B assay relative to control; settings: RPMI-8226, 48 h, read-out: Activity
MCF7 = assay: Cytotoxicity against human MCF7 cells assessed as cell growth at 0.01 uM after 48 hrs by sulforhodamine B assay relative to control; settings: MCF7, 48 h, read-out: Activity
U-251 = assay: Cytotoxicity against human U251 cells assessed as cell growth at 0.1 uM after 48 hrs by sulforhodamine B assay relative to control; settings: U-251, 48 h, read-out: Activity
OVCAR-3 [5] = assay: Cytotoxicity against human OVCAR3 cells assessed as cell growth at 0.1 uM after 48 hrs by sulforhodamine B assay relative to control; settings: OVCAR-3, 48 h, read-out: Activity
UO-31 = assay: Cytotoxicity against human UO31 cells assessed as cell growth at 0.1 uM after 48 hrs by sulforhodamine B assay relative to control; settings: UO-31, 48 h, read-out: Activity
T47D = assay: Cytotoxicity against human T47D cells assessed as cell growth at 0.1 uM after 48 hrs by sulforhodamine B assay relative to control; settings: read-out: Activity
MOLT-4 = assay: Cytotoxicity against human MOLT4 cells assessed as cell growth at 1 uM after 48 hrs by sulforhodamine B assay relative to control; settings: MOLT-4, 48 h, read-out: Activity
SR = assay: Cytotoxicity against human SR cells assessed as cell growth at 1 uM after 48 hrs by sulforhodamine B assay relative to control; settings: read-out: Activity
HCT-15 = assay: Cytotoxicity against human HCT15 cells assessed as cell growth at 1 uM after 48 hrs by sulforhodamine B assay relative to control; settings: HCT-15, 48 h, read-out: Activity
OVCAR-3 [6] = assay: Cytotoxicity against human OVCAR3 cells assessed as cell growth at 1 uM after 48 hrs by sulforhodamine B assay relative to control; settings: OVCAR-3, 48 h, read-out: Activity
786-0 = assay: Cytotoxicity against human 786-0 cells assessed as cell growth at 1 uM after 48 hrs by sulforhodamine B assay relative to control; settings: 786-0, 48 h, read-out: Activity
MDA-MB-231 = assay: Cytotoxicity against human MDA-MB-231 cells assessed as cell growth at 1 uM after 48 hrs by sulforhodamine B assay relative to control; settings: MDA-MB-231, 48 h, read-out: Activity
Hs-578T = assay: Cytotoxicity against human Hs 578T cells assessed as cell growth at 1 uM after 48 hrs by sulforhodamine B assay relative to control; settings: read-out: Activity
HOP-62 [7] = assay: Cytotoxicity against human HOP62 cells assessed as cell growth at 10 uM after 48 hrs by sulforhodamine B assay relative to control; settings: HOP-62, 48 h, read-out: Activity
NCI-H23 [8] = assay: Cytotoxicity against human NCI-H23 cells assessed as cell growth at 10 uM after 48 hrs by sulforhodamine B assay relative to control; settings: NCI-H23, 48 h, read-out: Activity
NCI-H322M = assay: Cytotoxicity against human NCI-H322M cells assessed as cell growth at 10 uM after 48 hrs by sulforhodamine B assay relative to control; settings: read-out: Activity
NCI-H460 = assay: Cytotoxicity against human NCI-H460 cells assessed as cell growth at 10 uM after 48 hrs by sulforhodamine B assay relative to control; settings: NCI-H460, 48 h, read-out: Activity
KM12 = assay: Cytotoxicity against human KM12 cells assessed as cell growth at 10 uM after 48 hrs by sulforhodamine B assay relative to control; settings: KM12, 48 h, read-out: Activity
M14 = assay: Cytotoxicity against human M14 cells assessed as cell growth at 10 uM after 48 hrs by sulforhodamine B assay relative to control; settings: M14, 48 h, read-out: Activity
SK-MEL-28 = assay: Cytotoxicity against human SK-MEL-28 cells assessed as cell growth at 10 uM after 48 hrs by sulforhodamine B assay relative to control; settings: SK-MEL-28, 48 h, read-out: Activity
PC-3 = assay: Cytotoxicity against human PC3 cells assessed as cell growth at 10 uM after 48 hrs by sulforhodamine B assay relative to control; settings: PC-3, 48 h, read-out: Activity
CCRF-CEM [9] = assay: Cytotoxicity against human CCRF-CEM cells assessed as cell growth at 100 uM after 48 hrs by sulforhodamine B assay relative to control; settings: read-out: Activity
NCI-H522 = assay: Cytotoxicity against human NCI-H522 cells assessed as cell growth at 100 uM after 48 hrs by sulforhodamine B assay relative to control; settings: NCI-H522, 48 h, read-out: Activity
SW-620 [10] = assay: Cytotoxicity against human SW620 cells assessed as cell growth at 100 uM after 48 hrs by sulforhodamine B assay relative to control; settings: SW-620, 48 h, read-out: Activity
IGROV-1 = assay: Cytotoxicity against human IGROV1 cells assessed as cell growth at 100 uM after 48 hrs by sulforhodamine B assay relative to control; settings: IGROV-1, 48 h, read-out: Activity
SN12C = assay: Cytotoxicity against human SN12C cells assessed as cell growth at 100 uM after 48 hrs by sulforhodamine B assay relative to control; settings: read-out: Activity
HL-60(TB) = assay: Cytotoxicity against human HL-60(TB) cells assessed as cell growth at 10 uM after 48 hrs by sulforhodamine B assay relative to control; settings: HL-60, 48 h, read-out: Activity
SNB-19 = assay: Cytotoxicity against human SNB19 cells assessed as cell growth at 10 uM after 48 hrs by sulforhodamine B assay relative to control; settings: SNB-19, 48 h, read-out: Activity

COc1cc(-c2cc(/C=C/C(=O)c3ccc(N)cc3)[nH]n2)cc(OC)c1OC
GI50 (CCRF-CEM [1]): 0.55 µM
LC50 (concentration killing 50% of cells) (CCRF-CEM [1]): > 100 µM
TGI (CCRF-CEM [1]): 4.17 µM
GI50 (HOP-62 [2]): 1.77 µM
LC50 (HOP-62 [2]): 8.7 µM
TGI (HOP-62 [2]): 3.92 µM
GI50 (NCI-H23 [3]): 2.48 µM
TGI (NCI-H23 [3]): 6.79 µM
CC50 (NCI-H23 [3]): 73.2 µM
GI50 (SF-268): 1.69 µM
TGI (SF-268): 3.93 µM
CC50 (SF-268): 9.16 µM
GI50 (SK-MEL-2): 2.85 µM
LC50 (concentration killing 50% of cells) (SK-MEL-2): 31.9 µM
TGI (SK-MEL-2): 7.53 µM
GI50 (MDA-MB-468): 1.01 µM
LC50 (MDA-MB-468): 8.42 µM
TGI (MDA-MB-468): 2.91 µM
growth at 0.01 µM (SW-620 [4]): 95%
growth at 0.01 µM (RPMI-8226): 98%
growth at 0.01 µM (MCF7): 89%
growth at 0.1 µM (U-251): 94%
growth at 0.1 µM (OVCAR-3 [5]): 110%
growth at 0.1 µM (UO-31): 91%
growth at 0.1 µM (T47D): 85%
growth at 1 µM (MOLT-4): 72%
growth at 1 µM (SR): 14%
growth at 1 µM (HCT-15): 60%
growth at 1 µM (OVCAR-3 [6]): 79%
growth at 1 µM (786-0): 81%
growth at 1 µM (MDA-MB-231): 70%
growth at 1 µM (Hs-578T): 87%
growth at 10 µM (HOP-62 [7]): -59%
growth at 10 µM (NCI-H23 [8]): -19%
growth at 10 µM (NCI-H322M): -32%
growth at 10 µM (NCI-H460): -32%
growth at 10 µM (KM12): -67%
growth at 10 µM (M14): -64%
growth at 10 µM (SK-MEL-28): -57%
growth at 10 µM (PC-3): 1%
growth at 100 µM (CCRF-CEM [9]): -21%
growth at 100 µM (NCI-H522): -83%
growth at 100 µM (SW-620 [10]): -40%
growth at 100 µM (IGROV-1): -49%
growth at 100 µM (SN12C): -86%

COc1ccc(-c2cc(/C=C/C(=O)c3ccc(N)cc3)[nH]n2)cc1
GI50 (CCRF-CEM [1]): 1.32 µM
LC50 (concentration killing 50% of cells) (CCRF-CEM [1]): 36.1 µM
TGI (CCRF-CEM [1]): 4.91 µM
GI50 (HOP-62 [2]): 2.8 µM
LC50 (HOP-62 [2]): 61.2 µM
TGI (HOP-62 [2]): 7.49 µM
GI50 (NCI-H23 [3]): 3.22 µM
TGI (NCI-H23 [3]): 13.1 µM
CC50 (NCI-H23 [3]): 68.4 µM
GI50 (SF-268): 1.81 µM
TGI (SF-268): 5.31 µM
CC50 (SF-268): 45.7 µM
GI50 (MDA-MB-468): 0.43 µM
LC50 (MDA-MB-468): 7.45 µM
TGI (MDA-MB-468): 2.09 µM
growth at 0.01 µM (SW-620 [4]): 100%
growth at 0.01 µM (RPMI-8226): 99%
growth at 0.01 µM (MCF7): 84%
growth at 0.1 µM (U-251): 90%
growth at 0.1 µM (OVCAR-3 [5]): 96%
growth at 0.1 µM (UO-31): 82%
growth at 0.1 µM (T47D): 87%
growth at 1 µM (MOLT-4): 80%
growth at 1 µM (SR): 45%
growth at 1 µM (HCT-15): 50%
growth at 1 µM (OVCAR-3 [6]): 63%
growth at 1 µM (786-0): 88%
growth at 1 µM (MDA-MB-231): 78%
growth at 1 µM (Hs-578T): 93%
growth at 10 µM (HL-60(TB)): -8%
growth at 10 µM (HOP-62 [7]): -15%
growth at 10 µM (NCI-H23 [8]): 8%
growth at 10 µM (NCI-H322M): -2%
growth at 10 µM (NCI-H460): -40%
growth at 10 µM (KM12): -67%
growth at 10 µM (SNB-19): 5%
growth at 10 µM (M14): -24%
growth at 10 µM (SK-MEL-28): -60%
growth at 100 µM (CCRF-CEM [9]): -68%
growth at 100 µM (NCI-H522): -75%
growth at 100 µM (SW-620 [10]): -58%
growth at 100 µM (IGROV-1): -67%
growth at 100 µM (SN12C): -78%

COc1ccc(-c2cc(/C=C/C(=O)c3ccc4c(c3)OCO4)[nH]n2)cc1OC
GI50 (CCRF-CEM [1]): 0.36 µM
GI50 (HOP-62 [2]): 1.73 µM
GI50 (NCI-H23 [3]): 2.25 µM
GI50 (SF-268): 2.09 µM
GI50 (SK-MEL-2): 2.46 µM
GI50 (MDA-MB-468): 1.09 µM
